Measurements taken from PubChem BioAssay AID248 (DTP/NCI, 2004).
Values joined by “and” are separate entries in the source; they are usually repeats but may differ in a detail not shown here. Equal values may be shown once. Inconclusive results and toxic doses are left out. No stated cut-off is given here; in the data, active means T/C of 150% or more; inactive means T/C below 125%.

System: L1210 leukemia ip in BDF1 mice, survival T/C
Experiment: NCI In Vivo Anticancer Drug Screen. Data for tumor model L1210 Leukemia (intraperitoneal) in B6D2F1 (BDF1) mice
Conditions: endpoint: mean survival time, higher = longer survival
Outline: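 Transplantable tumor model; survival measured in treated vs vehicle control mice. Value = treated/control.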

[1] = dose: 75.0 mg/kg/injection, schedule: Q01DX001 (ip), vehicle: saline
[2] = dose: 150.0 mg/kg/injection, schedule: Q01DX001 (ip), vehicle: saline
[3] = dose: 100.0 mg/kg/injection, schedule: Q01DX009 (ip), vehicle: saline
[4] = dose: 100.0 mg/kg/injection, schedule: Q04DX003 (ip), vehicle: saline
[5] = dose: 200.0 mg/kg/injection, schedule: Q01DX009 (ip), vehicle: saline
[6] = dose: 200.0 mg/kg/injection, schedule: Q04DX003 (ip), vehicle: saline
[7] = dose: 400.0 mg/kg/injection, schedule: Q01DX009 (ip), vehicle: saline
[8] = dose: 400.0 mg/kg/injection, schedule: Q04DX003 (ip), vehicle: saline
[9] = dose: 25.0 mg/kg/injection, schedule: Q01DX009 (ip), vehicle: Klucel (hydroxypropylcellulose) (HPC)
[10] = dose: 50.0 mg/kg/injection, schedule: Q01DX009 (ip), vehicle: Klucel (hydroxypropylcellulose) (HPC)
[11] = dose: 100.0 mg/kg/injection, schedule: Q01DX009 (ip), vehicle: Klucel (hydroxypropylcellulose) (HPC)
[12] = dose: 100.0 mg/kg/injection, schedule: Q04DX003 (ip), vehicle: Klucel (hydroxypropylcellulose) (HPC)
[13] = dose: 200.0 mg/kg/injection, schedule: Q04DX003 (ip), vehicle: Klucel (hydroxypropylcellulose) (HPC)
[14] = dose: 400.0 mg/kg/injection, schedule: Q04DX003 (ip), vehicle: Klucel (hydroxypropylcellulose) (HPC)
[15] = dose: 200.0 mg/kg/injection, schedule: Q01DX009 (ip), vehicle: Klucel (hydroxypropylcellulose) (HPC)
[16] = dose: 400.0 mg/kg/injection, schedule: Q01DX009 (ip), vehicle: Klucel (hydroxypropylcellulose) (HPC)
[17] = dose: 100.0 mg/kg/injection, schedule: Q01DX009 (ip), vehicle: other
[18] = dose: 200.0 mg/kg/injection, schedule: Q01DX009 (ip), vehicle: other
[19] = dose: 100.0 mg/kg/injection, schedule: Q01DX001 (ip), vehicle: saline
[20] = dose: 200.0 mg/kg/injection, schedule: Q01DX001 (ip), vehicle: saline
[21] = dose: 400.0 mg/kg/injection, schedule: Q01DX001 (ip), vehicle: saline
[22] = dose: 50.0 mg/kg/injection, schedule: Q01DX009 (ip), vehicle: saline with Tween-80

Measured: T/C

CC(=O)N1CCc2nc3ccccc3cc21
inactive: dose: 37.5 mg/kg/injection, schedule: Q01DX009 (ip), vehicle: saline with Tween-80 96 % of control | dose: 37.5 mg/kg/injection, schedule: Q04DX003 (ip), vehicle: saline 104 % of control | [1] 95 % of control | dose: 75.0 mg/kg/injection, schedule: Q01DX009 (ip), vehicle: saline with Tween-80 94 % of control | dose: 75.0 mg/kg/injection, schedule: Q04DX003 (ip), vehicle: saline 104 % of control | [2] 101 % of control | dose: 150.0 mg/kg/injection, schedule: Q01DX009 (ip), vehicle: saline with Tween-80 88 % of control | dose: 150.0 mg/kg/injection, schedule: Q04DX003 (ip), vehicle: saline 106 % of control

CN1C(=O)C2CCCN2C(=O)C1(C)O (centres undefined)
inactive: dose: 100.0 mg/kg/injection, schedule: Q04DX002 (ip), vehicle: saline 90 % of control | dose: 200.0 mg/kg/injection, schedule: Q04DX002 (ip), vehicle: saline 97 % of control | dose: 400.0 mg/kg/injection, schedule: Q04DX002 (ip), vehicle: saline 97 % of control

Cc1nn(C)c2c(N)ncnc12
inactive: dose: 75.0 mg/kg/injection, schedule: Q01DX001 (ip), vehicle: other 100 % of control | dose: 150.0 mg/kg/injection, schedule: Q01DX001 (ip), vehicle: other 102 % of control | dose: 300.0 mg/kg/injection, schedule: Q01DX001 (ip), vehicle: other 98 % of control

Cc1c[nH]c(=O)cn1
inactive: [3] 97 % of control | [4] 94 % of control | [5] 90 % of control | [6] 104 % of control | [7] 93 % of control | [8] 104 % of control

NNC(=O)c1ccc(Br)cc1
inactive: [9] 93 % of control | [10] 96 % of control | [11] 104 % of control | [12] 94 % of control | [13] 103 % of control | [14] 106 % of control

CCCCCCSC(=N)N
inactive: dose: 12.5 mg/kg/injection, schedule: Q01DX001 (ip), vehicle: saline 95 % of control | dose: 12.5 mg/kg/injection, schedule: Q04DX002 (ip), vehicle: saline 94 % of control and 97 % of control | dose: 12.5 mg/kg/injection, schedule: Q04DX003 (ip), vehicle: saline 119 % of control | dose: 25.0 mg/kg/injection, schedule: Q01DX001 (ip), vehicle: saline 100 % of control | dose: 25.0 mg/kg/injection, schedule: Q04DX002 (ip), vehicle: saline 94 % of control and 100 % of control | dose: 25.0 mg/kg/injection, schedule: Q04DX003 (ip), vehicle: saline 104 % of control | dose: 50.0 mg/kg/injection, schedule: Q01DX001 (ip), vehicle: saline 89 % of control | dose: 50.0 mg/kg/injection, schedule: Q04DX002 (ip), vehicle: saline 103 % of control and 106 % of control | dose: 50.0 mg/kg/injection, schedule: Q04DX003 (ip), vehicle: saline 102 % of control

O=C1c2cccc3cccc(c23)C(=O)N1CC1CCCO1 (centres undefined)
inactive: [11] 94 % of control | [15] 94 % of control | [16] 87 % of control

CSc1cc(C)c(O)c(CO)c1
inactive: [17] 92 % of control | [18] 97 % of control | dose: 400.0 mg/kg/injection, schedule: Q01DX009 (ip), vehicle: other 92 % of control

O=C(Nc1cccc(C(F)(F)F)c1)OCCOc1ccc(Cl)cc1
inactive: dose: 100.0 mg/kg/injection, schedule: Q04DX002 (ip), vehicle: Klucel (hydroxypropylcellulose) (HPC) 89 % of control | dose: 200.0 mg/kg/injection, schedule: Q04DX002 (ip), vehicle: Klucel (hydroxypropylcellulose) (HPC) 96 % of control | dose: 400.0 mg/kg/injection, schedule: Q04DX002 (ip), vehicle: Klucel (hydroxypropylcellulose) (HPC) 101 % of control

O=C(NCc1ccccc1)c1ccccc1
inactive: [12] 97 % of control | [13] 95 % of control | [14] 100 % of control

CCOC(=O)c1ccc(N(CCC(=O)COC(C)=O)C(C)=O)cc1
inactive: dose: 100.0 mg/kg/injection, schedule: Q01DX001 (ip), vehicle: carboxymethylcellulose (CMC) 94 % of control | dose: 200.0 mg/kg/injection, schedule: Q01DX001 (ip), vehicle: carboxymethylcellulose (CMC) 100 % of control | dose: 400.0 mg/kg/injection, schedule: Q01DX001 (ip), vehicle: carboxymethylcellulose (CMC) 102 % of control

C[n+]1ccccc1
inactive: [19] 94 % of control | [20] 93 % of control | [21] 104 % of control

CCCCCCNC(N)=O
inactive: [22] 93 % of control and 100 % of control | dose: 100.0 mg/kg/injection, schedule: Q01DX009 (ip), vehicle: saline with Tween-80 100 % of control and 101 % of control | dose: 200.0 mg/kg/injection, schedule: Q01DX009 (ip), vehicle: saline with Tween-80 100 % of control and 101 % of control

N#CC(/C=C/c1ccccc1)NCC(O)c1ccccc1 (centres undefined)
inactive: dose: 100.0 mg/kg/injection, schedule: Q01DX009 (ip), vehicle: saline sonified 95 % of control | dose: 200.0 mg/kg/injection, schedule: Q01DX009 (ip), vehicle: saline sonified 95 % of control | dose: 400.0 mg/kg/injection, schedule: Q01DX009 (ip), vehicle: saline sonified 95 % of control

O=C1CCC2C3CCC(=O)C3C12 (centres undefined)
inactive: [1] 102 % of control | [2] 97 % of control

ClCC1CC2C=CC1C2 (centres undefined)
inactive: dose: 12.5 mg/kg/injection, schedule: Q01DX009 (ip), vehicle: Klucel (hydroxypropylcellulose) (HPC) 100 % of control | [9] 100 % of control | dose: 25.0 mg/kg/injection, schedule: Q04DX002 (ip), vehicle: saline with Tween-80 102 % of control | [10] 93 % of control and 98 % of control | dose: 50.0 mg/kg/injection, schedule: Q04DX002 (ip), vehicle: saline with Tween-80 88 % of control

CC(=O)NC1CCC2CCCCC2C1 (centres undefined)
inactive: dose: 100.0 mg/kg/injection, schedule: Q01DX001 (ip), vehicle: Klucel (hydroxypropylcellulose) (HPC) 97 % of control | [11] 103 % of control | [12] 97 % of control | dose: 200.0 mg/kg/injection, schedule: Q01DX001 (ip), vehicle: Klucel (hydroxypropylcellulose) (HPC) 101 % of control | [15] 95 % of control | [13] 99 % of control | dose: 400.0 mg/kg/injection, schedule: Q01DX001 (ip), vehicle: Klucel (hydroxypropylcellulose) (HPC) 101 % of control | [16] 98 % of control | [14] 96 % of control

CCOC(=O)c1cc(N)c[nH]1
inactive: dose: 50.0 mg/kg/injection, schedule: Q01DX009 (ip), vehicle: saline 109 % of control | [3] 96 % of control | [4] 89 % of control | [5] 96 % of control | [6] 94 % of control

Cc1cccc(C)c1N=C=O
inactive: [17] 93 % of control | dose: 100.0 mg/kg/injection, schedule: Q04DX003 (ip), vehicle: saline with Tween-80 105 % of control | [18] 106 % of control | dose: 200.0 mg/kg/injection, schedule: Q04DX003 (ip), vehicle: saline with Tween-80 100 % of control | dose: 400.0 mg/kg/injection, schedule: Q04DX003 (ip), vehicle: saline with Tween-80 109 % of control

CC(=O)NC1CCC(O)CC1 (centres undefined)
inactive: [19] 104 % of control | [20] 94 % of control | [21] 107 % of control

O=C(Nc1cccc(S(=O)(=O)F)c1)c1ccc([N+](=O)[O-])cc1
inactive: [19] 107 % of control | [20] 103 % of control | [21] 90 % of control

CC1CC2C(CC1O)C2(C)C (centres undefined)
inactive: [3] 97 % of control | [4] 94 % of control | [5] 101 % of control | [6] 94 % of control | [7] 106 % of control | [8] 91 % of control

CNC(=O)Oc1cccc(C)c1
inactive: dose: 25.0 mg/kg/injection, schedule: Q01DX009 (ip), vehicle: saline with Tween-80 97 % of control | [22] 94 % of control
